Measurements as given in ChEMBL document CHEMBL1140489, “New biologically active epidioxysterols from Stereum hirsutum” (2007).
≈ marks a conversion by molar mass, not a printed value.

Legend:
Type in all cases: functional
Escherichia coli = test: Antibacterial activity against Escherichia coli ATCC […]
Candida = test: Antifungal activity against Candida sp.
[1] = tested on: Mycobacterium tuberculosis; test: Antibacterial activity against Mycobacterium tuberculosis H37Rv by microdilution resazurin assay
Staphylococcus aureus = test: Antibacterial activity against staphylococcus aureus ATCC 25923
Pseudomonas aeruginosa = test: Antibacterial activity against Pseudomonas aeruginosa ATCC 27753

Structure (SMILES) | MIC (Escherichia coli) [µg/mL] | MIC (Candida) [µg/mL] | MIC [1] [µg/mL] | MIC (Staphylococcus aureus) [µg/mL] | MIC (Pseudomonas aeruginosa) [µg/mL]
CC(C)C/C=C/[C@@H](C)[C@H]1CC[C@@H]2[C@]1(C)CC=C1[C@]23C=C[C@]2(C[C@@H](O)CC[C@]12C)OO3 | > 512 | > 512 | 16 (≈ 38.8 µM) | > 512 | > 512
Clc1ccc(COC(Cn2ccnc2)c2ccc(Cl)cc2Cl)c(Cl)c1 (centres undefined) [MICONAZOLE] |  | 0.25 (≈ 0.601 µM) |  |  | 
Cn1c([N+](=O)[O-])cnc1C#Cc1ccnc(N)n1 | > 512 | > 512 | 16 (≈ 65.5 µM) | > 512 | > 512
CC[C@@H](/C=C/[C@@H](C)[C@H]1CC[C@@H]2[C@]1(C)CC[C@H]1[C@]23C=C[C@]2(C[C@@H](O)CC[C@]12C)OO3)C(C)C | > 512 | > 512 | 64 (≈ 145 µM) | > 512 | > 512
O=C(O)c1cn(C2CC2)c2cc(N3CCNCC3)c(F)cc2c1=O [CIPROFLOXACIN] |  |  | 0.5 (≈ 1.51 µM) | 0.5 (≈ 1.51 µM) | 1 (≈ 3.02 µM)
CC(C)[C@@H](C)/C=C/[C@@H](C)[C@H]1CC[C@@H]2[C@]1(C)CC[C@H]1[C@]23C=C[C@]2(C[C@@H](O)CC[C@]12C)OO3 [ERGOSTEROL PEROXIDE] | > 512 | > 512 | 64 (≈ 149 µM) | > 512 | > 512
CC(C)[C@@H](C)/C=C/[C@@H](C)[C@H]1CC[C@@H]2[C@]1(C)CC=C1[C@]23C=C[C@]2(C[C@@H](O)CC[C@]12C)OO3 | > 512 | > 512 | 16 (≈ 37.5 µM) | > 512 | > 512
